Values after ≈ are worked out from the molar mass of the structure shown. Active and inactive are the calls of the source. No cut-off for these calls is given here.
Tests used:
Format in all cases: functional
HCT-8 = assay: Cytotoxicity against human HCT8 cells
A549 = assay: Cytotoxicity against human A549 cells
P388 = assay: Cytotoxicity against mouse P388 cells
KB = assay: Cytotoxicity against human KB cells
L1210 = assay: Cytotoxicity against mouse L1210 cells
[1] = read-out: ED50 (the source's name)

Row | SMILES | Activity (HCT-8) | Activity (A549) | Activity (P388) | Activity (KB) | Activity (L1210) | EC50 (HCT-8; [1]) [µg/mL] | EC50 (A549; [1]) [µg/mL] | EC50 (P388; [1]) [µg/mL] | EC50 (KB; [1]) [µg/mL] | EC50 (L1210; [1]) [µg/mL]
1 | COc1cc2c(cc1O)C(=O)c1c(C)ccnc1-2 | inactive | inactive | inactive | inactive | inactive |  |  |  |  | 
2 | C[N+]1([O-])CCc2cc3c(c4c2[C@H]1[C@@H](O)c1ccccc1-4)OCO3 (stereo not given in full) | inactive | inactive | inactive | inactive | inactive |  |  |  |  | 
3 | O[C@H]1c2ccccc2-c2c3c(cc4c2[C@@H]1NCC4)OCO3 | inactive | inactive | inactive | inactive | inactive |  |  |  |  | 
4 | COc1c(O)cc2c(c1OC)-c1nccc(C)c1C2=O | inactive | inactive | inactive | inactive | inactive |  |  |  |  | 
5 | O=C1c2ccccc2-c2c3c(cc4ccnc1c24)OCO3 [LIRIODENINE] |  |  |  |  |  | 0.7 (≈ 2.54 µM) | 0.72 (≈ 2.62 µM) | 0.57 (≈ 2.07 µM) | 1 (≈ 3.63 µM) | 2.33 (≈ 8.46 µM)
6 | COc1cc2c(cc1OC)-c1nccc(C)c1C2=O | inactive | inactive | inactive | inactive | inactive |  |  |  |  | 

— ChEMBL document CHEMBL1150187, “Two new natural azafluorene alkaloids and a cytotoxic aporphine alkaloid from Polyalthia longifolia” (1990)
